According to patent publication US20240091202A1, “COMPOSITIONS FOR THE TREATMENT OF EBV ASSOCIATED DISEASES OR CONDITIONS” (Universität Basel, priority 2021, published 2024):

Key:
[1] = test system: primary B cells infected with EBV B95-8; experiment: EBV-driven B cell transformation efficiency assay (LCL outgrowth); format: cell-based, human; conditions: for restoration of EBV's capacity to latently infect/transform B cells in the presence of BMS-986205: 10 μM BMS-986205 plus 50 μM L-KYNU or 500 μM NaMN, added day 0; for rescue of the capacity of EBV to transform IDO1-blocked B cells: summary statement, added together with IDO1 inhibitor
Method: Transformation efficiency was analyzed 5 weeks post infection and plotted against the added multiplicity of infection (MOI).
Data are represented as median value of indicated individual data points (n=4 independent experiments) relative to Ctrl siRNA (set at one), and compared using two-tailed Student's t-test.
An IDO1 inhibitor as disclosed herein can inhibit B cell transformation. Preferably, an IDO1 inhibitor as disclosed herein can inhibit EBV-induced B cell transformation. Transformation can be analysed by methods known in the art, for example using a transformation efficiency assay. In this assay B cells are seeded into a cell culture plate and infected with increasing virus concentrations. An IDO1 inhibitor can be added immediately after infection. After an incubation period of 5 weeks, the number of wells positive for LCL outgrowth are counted. Alternatively, any other suitable assay can be used. Suitably, an IDO1 inhibitor as disclosed herein can inhibit B cell transformation at a concentration of about 200 μM or less, about 150 μM or less, about 100 μM or less, about 50 μM or less, about 20 μM or less, about 15 μM or less, about 10 μM or less, about 5 μM or less, or about 1 μM or less, preferably about 100 μM or less or about 10 μM or less in the assays described herein. An IDO1 inhibitor as disclosed herein can be any one of the IDO inhibitors as disclosed herein that can inhibit B cell transformation, preferably EBV-induced B cell transformation.
Bulk B cells were seeded at a final concentration of 1×10^6 cells/ml in LCM-10 medium in a 96-well round bottom plate and infected with increasing concentration of EBV B95-8 (MOI 1×10^3-1×10^−4) by spinoculation. […] 5 weeks post-infection the number of wells with morphologic changes of transformation was counted and plotted as percentage of wells positive for LCL outgrowth against virus concentration in MOI.

[2] = test system: primary B cells infected with EBV B95-8; experiment: EBV-driven B cell proliferation, CellTrace Violet flow cytometry assay; format: cell-based, human; conditions: different BMS-986205 concentrations added at 0 hpi; analyzed 8 days post infection; vs vehicle
Method: Proliferation was analyzed in the presence of vehicle or different BMS-986205 concentrations added on day 0 post EBV-infection of primary B cells (n=2). Uninfected and h.i. EBV infected cells served as internal controls. Proliferation was analyzed 8 days post infection by flow cytometry using a cell trace violet based assay.
Bulk B cells were stained with CellTraceTM Violet (Cell Proliferation Kit, ThermoFisher) then infected with EBV B95-8 as described above. Proliferation was assessed by determining the number of proliferated cells (cells that had proliferated at least once after infection) with IDO1 inhibitor/number of proliferated cells with vehicle control.

EBV-positive tumors = experiment: EBV-positive tumor burden, humanized mouse model of EBV infection; format: in vivo, humanized NSG mice; conditions: Epacadostat i.p. vs vehicle, n=10 each (FIG. 13A-13C); text concludes reduced lymphomagenesis
Method: […]. A Chi-Square test was used to compare groups.
(lower panels) are shown, stained with hematoxylin and eosin (HE) (left panels) and EBER FISH (right panels).
A Chi-Square test was used to compare groups. […].
(§1) A humanized mouse model of EBV infection was then used to directly interrogate the role of IDO1 in EBV-driven immune dysregulation and lymphomagenesis. Briefly, NSG mice (Jackson Laboratory, Bar Harbor, ME, USA) were injected with human hematopoietic progenitor cells shortly after birth, and reconstitution with human immune system components was confirmed at 3-4 months of age (data not shown). […]. Efficacy of Epacadostat-mediated IDO1 inhibition was verified by quantifying tryptophan and L-kynurenine plasma levels (FIG. 10). EBV viral loads were assessed in DNA preparations from whole blood at week 2, 3, 4, and 5 pi, and in the spleen at the day of sacrifice, using Taqman real-time PCR with modified primers (5′-[…]-3′ and 5′-[…]-3′) and a fluorogenic probe (5′-FAM […]-TAMRA-3′) to detect the conserved EBV BamHI-W fragment. Samples were analyzed in triplicates and run on a CFX384 Touch Real-time PCR Detection System (Bio-Rad). DNA from whole blood was extracted with the NucliSENS EasyMAG System (Biornerieux) and DNA from splenic tissues was isolated using the DNeasy Blood and Tissue kit (QIAGEN), according to the manufacturer's recommendations.

EBV = EBV viral loads in blood and spleen, humanized mouse model (Taqman real-time PCR); format: in vivo, humanized NSG mice
Method: […]. Data are shown as median values from the indicated individual measurements, compared using two-tailed Student's t-test.
(§2) Median values from the indicated individual measurements are shown, compared using two-tailed Student's t-test.
as §1

IDO1 = IDO1 inhibition in humanized mouse model of EBV infection: tryptophan and L-kynurenine levels; format: in vivo, humanized NSG mice; conditions: Epacadostat 200 mg/kg i.p.; d -7, day 2 and day 7 pi; vs vehicle (FIG. 10)
Method: Data are shown as box and whiskers (median, IQR and range) and compared by two-tailed Student's t-test.
as §1

CD8+ T cells = experiment: CD8+ T cell expansion, humanized mouse model of EBV infection; format: in vivo, humanized NSG mice; conditions: Epacadostat i.p.
Method: as §2
Data are shown as medians and two-tailed Student's t-test was used to compare groups.
as §1

[3] = 5 weeks post infection (FIG. 6A)

Structure (SMILES): C[C@@H](C(=O)Nc1ccc(Cl)cc1)C1CCC(c2ccnc3ccc(F)cc23)CC1 (stereo partly shown) [BMS-986205]
- EBV driven B cell transformation ([1]; 10 μM BMS-986205 added at 0 hpi, analyzed 5 weeks post infection, vs vehicle): efficiently suppressed
- EBV driven B cell proliferation [2]: inhibited in a dose-dependent manner

Structure (SMILES): NS(=O)(=O)NCCNc1nonc1C(=NO)Nc1ccc(F)c(Br)c1 [Epacadostat]
- effect on EBV-driven B cell tumorigenesis (macroscopic and microscopic tumor burden) (EBV-positive tumors): equally clear
- transformation of EBV-infected B cells ([1]; 100 μM Epacadostat added at 0 hpi, 5 weeks post infection (FIG. 6B)): efficiently suppressed
- splenic viral loads (EBV; Epacadostat i.p., 5 weeks pi, vs vehicle-treated (FIG. 11B)): borderline reduced
- blood EBV load (EBV; Epacadostat i.p., AUC of viral load 2-5 weeks pi, vs vehicle-treated (FIG. 11A)): efficiently reduced
- effect on viral loads (EBV; treated throughout the experiment and also treated for only 2 weeks after infection (data not shown)): observed
- efficacy of IDO1 inhibition by tryptophan and L-kynurenine plasma levels (IDO1): verified
- Splenic CD8VCD4^+ T cell ratios (CD8+ T cells; day of sacrifice (FIG. 12C)): remained unchanged
- expansion of peripheral blood CD8+ T cells (CD8+ T cells; week 0 to week 5 pi, vs vehicle (FIG. 12A and 12B)): prevented

Structure (SMILES): Nc1ccccc1C(=O)C[C@H](N)C(=O)O [L-KYNU, L-Kynurenine]
- restoration of EBV's capacity to latently infect/transform B cells in the presence of BMS-986205 [1, 3]: partially restored
- rescue of the capacity of EBV to transform IDO1-blocked B cells [1]: partially and dose-dependently rescued

Structure (SMILES): O=C(O)c1ccc[n+]([C@@H]2O[C@H](COP(=O)(O)O)[C@@H](O)[C@H]2O)c1 [NaMN]
- restoration of EBV's capacity to latently infect/transform B cells in the presence of BMS-986205 [1, 3]: fully restored
- transformation efficiency compared to vehicle ([1]; 10 μM BMS-986205 plus 500 μM NaMN, day 0, 5 weeks post infection (FIG. 6A)): slightly increased
- rescue of transformation of B cells in the presence of Epacadostat ([1]; 100 μM Epacadostat plus 500 μM NaMN, day 0, 5 weeks post infection (FIG. 6B)): fully rescued
- rescue of the capacity of EBV to transform IDO1-blocked B cells [1]: fully rescue
